# Results: patent US12479821B2 (MBD CO., LTD., priority 2019, dated 2025)
# Target: T1, CYP4A (Homo sapiens, UniProt Q02928)
# T1 construct: host or cells: bactosome, i.e. bacterial membrane preparation (own knowledge of the term)
# T1 sequence (Q02928 5-519): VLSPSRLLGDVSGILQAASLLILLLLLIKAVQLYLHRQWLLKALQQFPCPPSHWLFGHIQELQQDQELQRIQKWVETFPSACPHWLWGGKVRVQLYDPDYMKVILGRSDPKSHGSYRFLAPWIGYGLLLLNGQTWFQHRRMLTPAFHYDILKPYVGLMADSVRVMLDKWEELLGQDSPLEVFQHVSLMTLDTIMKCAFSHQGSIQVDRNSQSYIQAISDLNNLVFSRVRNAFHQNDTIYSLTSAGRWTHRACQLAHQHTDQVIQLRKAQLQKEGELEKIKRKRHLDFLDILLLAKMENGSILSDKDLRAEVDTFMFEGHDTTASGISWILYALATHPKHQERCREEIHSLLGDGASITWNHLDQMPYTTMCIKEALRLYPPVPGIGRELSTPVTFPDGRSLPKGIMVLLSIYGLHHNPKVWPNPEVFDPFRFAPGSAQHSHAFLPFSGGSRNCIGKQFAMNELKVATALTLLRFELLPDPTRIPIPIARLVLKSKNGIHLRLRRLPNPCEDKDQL
# Assay: CYP4A enzyme assay (Luciferin-ME luminescence, CYP4A bactosome)
# Assay type: biochemical
# Settings: compound concentration 5 μM; 25%-50%; read-out: % Inhibition 25%-50%
# Method: A commercially available reagent was used for the reagent used in the experiment, and it was manufactured and used if necessary. The device used for activity measurement was EnVision of PerkinElmer or SpectraMax of MOLECULAR DEVICES.
# First, CYP4A bactosome and synthetic compound (5 μM) were mixed in assay buffer (100 mM KPO4, 0.1% BSA, 1 mM DTT) in a 384-well plate (white opaque ploystyrene nontreated flat-bottom well), and then reacted at room temperature for 15 minutes. After adding 5 mM Luciferin-ME and NADPH Regeneration system (10× sol.A, 20× sol.B in assay buffer, Cat. Number: V865B, Promega), leave it at room temperature for 30 minutes to allow the CYP4A reaction to occur sufficiently, by adding the Luciferin Detection reagent, the CYP4A reaction was finished, luminescence reaction was induced, and the reaction was carried out at room temperature for 15 minutes. The degree of inhibition of CYP4A activity was measured by comparing the luminescence values from each well with a microplate reader.
row,SMILES,inhibition at 5 µM
1,"Cc1ccc(S(=O)(=O)N2CCCC(C(=O)N3CCN(c4cc(C(F)(F)F)nc5ccccc45)CC3)C2)cc1 (stereo not shown) [Formula 65, (1-tosylpiperidin-3-yl) (4-(2-(trifluoromethyl)quinolin-4-yl)piperazin-1-yl) methanone]",25 to 50%
2,"O=C(C1CCCN(S(=O)(=O)c2ccc(F)cc2)C1)N1CCN(c2cc(C(F)(F)F)nc3ccccc23)CC1 (stereo not shown) [Formula 66, (1-(4-fluorophenylsulfonyl)piperidin-3-yl) (4-(2-(trifluoromethyl)quinolin-4-yl)piperazin-1-yl) methanone]",25 to 50%
3,"O=C(C1CCCN(S(=O)(=O)c2ccc(O)cc2)C1)N1CCN(c2cc(C(F)(F)F)nc3ccccc23)CC1 (stereo not shown) [Formula 68, (1-(4-hydroxyphenylsulfonyl)piperidin-3-yl) (4-(2-(trifluoromethyl)quinolin-4-yl)piperazin-1-yl) methanone]",25 to 50%
4,"O=C([C@H]1CCCN(S(=O)(=O)c2ccc(O)cc2)C1)N1CCN(c2cc(C(F)(F)F)nc3ccccc23)CC1 [Formula 70, (S)-(1-(4-hydroxyphenylsulfonyl)piperidin-3-yl) (4-(2-(trifluoromethyl)quinolin-4-yl)piperazin-1-yl) methanone]",25 to 50%
5,"O=C(C1CCCN(S(=O)(=O)c2ccc(C(F)(F)F)cc2)C1)N1CCN(c2cc(C(F)(F)F)nc3ccccc23)CC1 (stereo not shown) [Formula 71, (1-(4-(trifluoromethyl)phenylsulfonyl)piperidin-3-yl) (4-(2-(trifluoromethyl)quinolin-4-yl)piperazin-1-yl) methanone]",25 to 50%
6,"O=C(C1CCCN(S(=O)(=O)c2cccc(F)c2)C1)N1CCN(c2cc(C(F)(F)F)nc3ccccc23)CC1 (stereo not shown) [Formula 72, (1-(3-fluorophenylsulfonyl)piperidin-3-yl) (4-(2-(trifluoromethyl)quinolin-4-yl)piperazin-1-yl) methanone]",25 to 50%
7,"O=C(C1CCCN(S(=O)(=O)c2c(F)c(F)c(F)c(F)c2F)C1)N1CCN(c2cc(C(F)(F)F)nc3ccccc23)CC1 (stereo not shown) [Formula 73, (1-(perfluorophenylsulfonyl)piperidin-3-yl) (4-(2-(trifluoromethyl)quinolin-4-yl)piperazin-1-yl) methanon]",25 to 50%
8,"COc1ccc2c(N3CCN(C(=O)C4CCCN(S(=O)(=O)c5ccc(C)cc5)C4)CC3)ccnc2c1 (stereo not shown) [Formula 88, (4-(7-methoxyquinolin-4-yl)piperazin-1-yl) (1-tosylpiperidin-3-yl) methanone]",0%

# Same assay, conditions: compound concentration 5 μM; 75% or more; read-out: % Inhibition 75% or more
row,SMILES,inhibition at 5 µM
1,"O=C(C1CCCN(S(=O)(=O)c2cccc(Br)c2)C1)N1CCN(c2ccnc3cc(F)ccc23)CC1 (stereo not shown) [Formula 62, (1-(3-bromophenylsulfonyl)piperidin-3-yl) (4-(7-fluoroquinolin-4-yl)piperazin-1-yl) methanone]",≥ 75%
2,"O=C(C1CCCN(S(=O)(=O)c2ccc(F)cc2)C1)N1CCN(c2ccnc3ccccc23)CC1 (stereo not shown) [Formula 75, (1-(4-fluorophenylsulfonyl)piperidin-3-yl) (4-(quinolin-4-yl)piperazin-1-yl) methanone]",≥ 75%
3,"O=C(C1CCCN(S(=O)(=O)c2ccc(O)cc2)C1)N1CCN(c2ccnc3ccccc23)CC1 (stereo not shown) [Formula 76, (1-((4-hydroxyphenyl)sulfonyl)piperidin-3-yl) (4-(quinolin-4-yl)piperazin-1-yl) methanone]",≥ 75%
4,"CN(C)c1ccc(S(=O)(=O)N2CCCC(C(=O)N3CCN(c4ccnc5ccccc45)CC3)C2)cc1 (stereo not shown) [Formula 77, (1-(4-(dimethylamino)phenylsulfonyl)piperidin-3-yl) (4-(quinolin-4-yl)piperazin-1-yl) methanone]",≥ 75%
5,"CC(=O)Nc1ccc(S(=O)(=O)N2CCCC(C(=O)N3CCN(c4ccnc5ccccc45)CC3)C2)cc1 (stereo not shown) [Formula 78, N-(4-((3-(4-(quinolin-4-yl)piperazine-1-carbonyl)piperidin-1-yl)sulfonyl)phenyl) acetamide]",≥ 75%
6,"CN(C)c1ccc(S(=O)(=O)N2CCC[C@@H](C(=O)N3CCN(c4ccnc5ccccc45)CC3)C2)cc1 [Formula 79, (R)-(1-(4-(dimethylamino)phenylsulfonyl)piperidin-3-yl) (4-(quinolin-4-yl)piperazin-1-yl)methanone]",≥ 75%
7,"CN(C)c1ccc(S(=O)(=O)N2CCC[C@H](C(=O)N3CCN(c4ccnc5ccccc45)CC3)C2)cc1 [Formula 80, (S)-(1-(4-(dimethylamino)phenylsulfonyl)piperidin-3-yl) (4-(quinolin-4-yl)piperazin-1-yl)methanone]",≥ 75%
8,"O=C(C1CCCN(S(=O)(=O)c2ccc([N+](=O)[O-])cc2)C1)N1CCN(c2ccnc3ccccc23)CC1 (stereo not shown) [Formula 81, (1-(4-nitrophenylsulfonyl)piperidin-3-yl) (4-(quinolin-4-yl)piperazin-1-yl) methanone]",≥ 75%
9,"O=C(C1CCCN(S(=O)(=O)c2cccc([N+](=O)[O-])c2)C1)N1CCN(c2ccnc3ccccc23)CC1 (stereo not shown) [Formula 82, (1-(3-nitrophenylsulfonyl)piperidin-3-yl) (4-(quinolin-4-yl)piperazin-1-yl) methanone]",≥ 75%
10,"CCN(CC)c1ccc(S(=O)(=O)N2CCCC(C(=O)N3CCN(c4ccnc5ccccc45)CC3)C2)cc1 (stereo not shown) [Formula 83, (1-(4-(diethylamino)phenylsulfonyl)piperidin-3-yl) (4-(quinolin-4-yl)piperazin-1-yl)methanone]",≥ 75%
11,"O=C(C1CCCN(S(=O)(=O)c2ccc(-c3ccccc3)cc2)C1)N1CCN(c2ccnc3ccccc23)CC1 (stereo not shown) [Formula 84, (4-(quinolin-4-yl)piperazin-1-yl) (1-(4-phenylbenzenesulfonyl)piperidin-3-yl) methanone]",≥ 75%
12,"COc1cccc(S(=O)(=O)N2CCCC(C(=O)N3CCN(c4ccnc5ccccc45)CC3)C2)c1 (stereo not shown) [Formula 86, (1-(3-methoxyphenylsulfonyl)piperidin-3-yl) (4-(quinolin-4-yl)piperazin-1-yl) methanone]",≥ 75%

# Same assay, conditions: compound concentration 5 μM; '50%-75%'; read-out: % Inhibition 50%-75%
row,SMILES,inhibition at 5 µM
1,"CC(=O)Nc1ccc(S(=O)(=O)N2CCCC(C(=O)N3CCN(c4cc(C(F)(F)F)nc5ccccc45)CC3)C2)cc1 (stereo not shown) [Formula 63, N-(4-(3-(1-(2-(trifluoromethyl)quinolin-4-yl)piperazine-4-carbonyl)piperidin-1-ylsulfonyl)phenyl) acetamide]",50 to 75%
2,"CN(C)c1ccc(S(=O)(=O)N2CCCC(C(=O)N3CCN(c4cc(C(F)(F)F)nc5ccccc45)CC3)C2)cc1 (stereo not shown) [Formula 67, (1-(4-(dimethylamino)phenylsulfonyl)piperidin-3-yl) (4-(2-(trifluoromethyl)quinolin-4-yl)piperazin-1-yl) methanone]",50 to 75%
3,"O=C([C@@H]1CCCN(S(=O)(=O)c2ccc(O)cc2)C1)N1CCN(c2cc(C(F)(F)F)nc3ccccc23)CC1 [Formula 69, (R)-(1-(4-hydroxyphenylsulfonyl)piperidin-3-yl) (4-(2-(trifluoromethyl)quinolin-4-yl)piperazin-1-yl) methanone]",50 to 75%
4,"O=C(C1CCCN(S(=O)(=O)c2ccccc2)C1)N1CCN(c2ccnc3ccccc23)CC1 (stereo not shown) [Formula 74, (1-(phenylsulfonyl)piperidin-3-yl) (4-(quinolin-4-yl)piperazin-1-yl) methanone]",50 to 75%
5,"O=C(C1CCCN(S(=O)(=O)c2ccc(Br)cc2)C1)N1CCN(c2ccnc3ccccc23)CC1 (stereo not shown) [Formula 85, (1-(4-bromophenylsulfonyl)piperidin-3-yl) (4-(quinolin-4-yl)piperazin-1-yl) methanone]",50 to 75%
6,"COc1ccc2c(N3CCN(C(=O)C4CCCN(S(=O)(=O)c5ccc(NC(C)=O)cc5)C4)CC3)ccnc2c1 (stereo not shown) [Formula 87, N-(4-(3-(1-(7-methoxyquinolin-4-yl)piperazine-4-carbonyl)piperidin-1-ylsulfonyl)phenyl) acetamide]",0%
7,"COc1ccc2c(N3CCN(C(=O)C4CCCN(S(=O)(=O)c5ccc(F)cc5)C4)CC3)ccnc2c1 (stereo not shown) [Formula 89, (1-(4-fluorophenylsulfonyl)piperidin-3-yl) (4-(7-methoxyquinolin-4-yl)piperazin-1-yl) methanone]",50 to 75%

# Same assay, conditions: compound concentration 5 μM; mark in column '25% or less'; read-out: % Inhibition 25% or less
row,SMILES,inhibition at 5 µM
1,"O=C(C1CCCN(S(=O)(=O)c2ccccc2)C1)N1CCN(c2cc(C(F)(F)F)nc3ccccc23)CC1 (stereo not shown) [Formula 64, (1-(phenylsulfonyl)piperidin-3-yl) (4-(2-(trifluoromethyl)quinolin-4-yl)piperazin-1-yl)methanone]",≤ 25%
